Reference: US20260285853A1, “COMPOUNDS AND METHODS FOR MODULATING SPLICING” (REMIX THERAPEUTICS INC., priority 2023, published 2026)

Experiments:
Type in all cases: cell-based
HTT mRNA [1] = assay: Gene panel canonical junction qPCR assay, decrease in CJ mRNA, Table 3; conditions: decrease in CJ mRNA levels, canonical junction qPCR, gene panel
Method in brief: (§1)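 A673 cells were plated, left to adhere for 24 h, then dosed; K562 cells were plated in 96- or 384-well format and dosed directly. Both were incubated 24 h at 37 °C with an 11-point 3-fold series (top 10 uM final). Canonical junction mRNA was then read by cDNA synthesis and qPCR.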

MYB mRNA [2] = assay: as above; conditions: decrease in CJ mRNA levels, canonical junction qPCR, gene panel
Method in brief: as §1

[3] = tested on: SH-SY5Y (human neuroblastoma) cells; assay: Cell viability, Cell Titer Glo 2.0 assay; conditions: read-out: Viability SHSY5Y.3 GI50
Method in brief: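 SH-SY5Y neuroblastoma cells are exposed to test compounds for 72 hours at 37 °C and 5% CO2, with final DMSO held at 0.1%. Cell viability is then measured with the CellTiter-Glo 2.0 assay.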

HTT mRNA [4] = assay: Splicing RT-qPCR assay (THP), Table 2A; conditions: Table 2A, THP; for AC50: HTT alternative junction (AJ) mRNA, read-out: HTT AJ (AC50, increase in alternative junction mRNA); for IC50: HTT canonical junction (CJ) mRNA, read-out: HTT CJ (IC50, decrease in canonical junction mRNA)
MYB mRNA [5] = assay: Splicing RT-qPCR assay (THP), Table 2A; conditions: Table 2A, THP; for AC50: MYB alternative junction (AJ) mRNA, read-out: MYB AJ (AC50, increase in alternative junction mRNA); for IC50: MYB canonical junction (CJ) mRNA, read-out: MYB CJ (IC50, decrease in canonical junction mRNA)

| SMILES | IC50 (HTT mRNA [1]) [µM] | IC50 (MYB mRNA [2]) [nM] | GI50 [3] [nM] | AC50 (HTT mRNA [4]) [µM] | IC50 (HTT mRNA [4]) [µM] | AC50 (MYB mRNA [5]) [nM] | IC50 (MYB mRNA [5]) [nM] |
| --- | --- | --- | --- | --- | --- | --- | --- |
| CN(C)c1ccc(C(=O)Nc2cc(CNS(C)(=O)=O)c3nn(C)cc3c2)c2nn(C)cc12 [Compound 841] | > 10 | > 10000 | > 10000 | > 10 | > 10 | > 10000 | > 10000 |
| Cc1cn2nc(NC(=O)c3ccc(N4CCC(NC5CC5)CC4)c4cn(C)nc34)cc(CNS(C)(=O)=O)c2n1 [Compound 842] | > 10 | > 10000 | 1000 to 10000 | > 10 | > 10 | > 10000 | > 10000 |
| COc1nc2c(C(=O)Nc3cc(CNS(C)(=O)=O)c4nn(C)cc4c3)ccc(N3CCC(NC4CC4)CC3)c2s1 [Compound 843] | > 10 | > 10000 | > 10000 | > 10 | > 10 | > 10000 | > 10000 |
| Cn1cc2cc(NC(=O)c3ccc(N4CCCCC4)c4cn(C)nc34)cc(CNS(C)(=O)=O)c2n1 [Compound 844] | > 10 | > 10000 | 1000 to 10000 | > 10 | > 10 | > 10000 | > 10000 |
| Cc1cn2cc(NC(=O)c3ccc(N4CCCCC4)c4cn(C)nc34)nc2c(CNS(C)(=O)=O)n1 [Compound 845] | > 10 | > 10000 | 1000 to 10000 | > 10 | > 10 | > 10000 | > 10000 |
| Cc1cn2cc(NC(=O)c3ccc(N4CCC(NC5CC5)CC4)c4cn(C)nc34)nc2c(CO)n1 [Compound 846, 4-[4-(cyclopropylamino)-1-piperidyl]-N-[8-(hydroxymethyl)-6-methyl-imidazo[1,2-a]pyrazin-2-yl]-2-methyl-indazole-7-carboxamide] | 0.1 to 1 | 100 to 1000 | 100 to 1000 | 0.1 to 1 | 0.1 to 1 | 100 to 1000 | 100 to 1000 |
| COc1cc2c(N3CCC(NC4CC4)CC3)ccc(C(=O)Nc3cc(CO)c4nn(C)cc4c3)n2n1 [Compound 847] | 0.1 to 1 | < 100 | 100 to 1000 | 0.1 to 1 | 0.1 to 1 | < 100 | < 100 |
| CNC1CCN(c2ccc(C(=O)Nc3cn4cc(C)nc(CNS(C)(=O)=O)c4n3)c3nn(C)cc23)C1 (stereo not shown) [Compound 848, N-[8-(methanesulfonamidomethyl)-6-methyl-imidazo[1,2-a]pyrazin-2-yl]-2-methyl-4-[3-(methylamino)pyrrolidin-1-yl]indazole-7-carboxamide] | 0.1 to 1 | 100 to 1000 | 100 to 1000 | 0.1 to 1 | 0.1 to 1 | 100 to 1000 | 100 to 1000 |
| CNC1CN(c2ccc(C(=O)Nc3cn4cc(C)nc(CNS(C)(=O)=O)c4n3)c3nn(C)cc23)C1 [Compound 849] | 0.1 to 1 | 100 to 1000 | 100 to 1000 | 0.1 to 1 | 0.1 to 1 | 100 to 1000 | 100 to 1000 |
| CCNC1CCN(c2ccc(C(=O)Nc3cn4ccnc(CNS(C)(=O)=O)c4n3)c3nn(C)cc23)CC1 [Compound 850] | > 10 | > 10000 | > 10000 | > 10 | > 10 | > 10000 | > 10000 |
| Cc1cn2cc(NC(=O)c3ccc(N4CCC(N(C)C)CC4)c4cn(C)nc34)nc2c(CNS(C)(=O)=O)n1 [Compound 851] | > 10 | > 10000 | > 10000 | > 10 | > 10 | > 10000 | > 10000 |
| Cn1cc2cc(NC(=O)c3c(O)cc(N4CCC(NC5CC5)CC4)c4cn(C)nc34)cc(CNS(C)(=O)=O)c2n1 [Compound 852] | > 10 | 100 to 1000 | 1000 to 10000 | 1 to 10 | > 10 | 100 to 1000 | 100 to 1000 |
| COc1cc(N2CCC(NC3CC3)CC2)c2cn(C)nc2c1C(=O)Nc1cc(CNS(C)(=O)=O)c2nn(C)cc2c1 [Compound 853] | > 10 | > 10000 | > 10000 | > 10 | > 10 | > 10000 | > 10000 |
| C=CCNC1CCN(c2cc(O)c(C(=O)Nc3cc(CNS(C)(=O)=O)c4nn(C)cc4c3)c3nn(C)cc23)CC1 [Compound 854] | > 10 | 100 to 1000 | 1000 to 10000 | 1 to 10 | > 10 | 100 to 1000 | 100 to 1000 |
| COc1nc2c(C(=O)Nc3cc(CNS(C)(=O)=O)c4nc(C)cn4c3)ccc(N3CCC(NC4CC4)CC3)c2s1 [Compound 855] | 1 to 10 | 1000 to 10000 | 1000 to 10000 | 1 to 10 | 1 to 10 | 1000 to 10000 | 1000 to 10000 |
| CCNC1CCN(c2ccc(C(=O)Nc3cn4cc(C)nc(CC(=O)N(C)C)c4n3)c3nn(C)cc23)CC1 [Compound 856] | 1 to 10 | 1000 to 10000 | 1000 to 10000 | 1 to 10 | 1 to 10 | 1000 to 10000 | 1000 to 10000 |
| CCNC1CCN(c2ccc(C(=O)Nc3cn4cc(C)nc(CC(N)=O)c4n3)c3nn(C)cc23)CC1 [Compound 857] | > 10 | > 10000 | > 10000 | > 10 | > 10 | > 10000 | > 10000 |
| Cc1cc2c(N3CCC(NC4CC4)CC3)ccc(C(=O)Nc3cc(CO)c4nn(C)cc4c3)n2n1 [Compound 858] | 1 to 10 | 100 to 1000 | 100 to 1000 | 1 to 10 | 1 to 10 | 100 to 1000 | 100 to 1000 |
| Cc1cn2c(N3CCC(NC4CC4)CC3)ccc(C(=O)Nc3cc(CO)c4nn(C)cc4c3)c2n1 [Compound 859] | 1 to 10 | 100 to 1000 | 1000 to 10000 | 1 to 10 | 1 to 10 | 100 to 1000 | 100 to 1000 |
| Cc1cn2cc(NC(=O)c3ccc(N4CCC(NC5CC5)CC4)c4cn(C)nc34)nc2c(CNc2nccs2)n1 [Compound 860] | > 10 | > 10000 | 1000 to 10000 | > 10 | > 10 | > 10000 | > 10000 |
| Cn1cc2cc(NC(=O)c3ccc(N4CCC(NC5CC5)CC4)c4cn(C)nc34)cc(CNc3ncccn3)c2n1 [Compound 861, 4-[4-(cyclopropylamino)-1-piperidyl]-2-methyl-N-[2-methyl-7-[(pyrimidin-2-ylamino)methyl]indazol-5-yl]indazole-7-carboxamide] | 1 to 10 | 100 to 1000 | 1000 to 10000 | > 10 | 1 to 10 | 100 to 1000 | 100 to 1000 |
| COc1nc2c(C(=O)Nc3cc(CO)c4nn(C)cc4c3)ccc(N3CCC(NC4CC4)CC3)c2s1 [Compound 862] | 0.1 to 1 | 100 to 1000 | 100 to 1000 | 0.1 to 1 | 0.1 to 1 | 100 to 1000 | 100 to 1000 |
